# In article PMC12575728, “Galactose-modified small molecule modulator targets RORα to enhance circadian rhythm and alleviate periodontitis-associated alveolar bone loss” (Bone Research, 2025):
# Key:
# [1] = Kinetic solubility test; type: physicochemical; settings: water, 25 °C, kinetic from dmso stock
# Text: Solubility(μmol/L)=Areafiltered×DFfiltered/Areastd×DFstd×[std]×DFstd
# [2] = system: Per2-dLuc and Bmal1-dLuc U2OS cells; test: Real-time bioluminescence monitoring of Per2-dLuc and Bmal1-dLuc U2OS cells; type: cell-based, human; settings: U2OS reporter cells, 5 μmol/L, vs DMSO
# Experimental: Two clonal circadian reporter cell lines, Bmal1-dLuc and Per2-dLuc, were established and used in this study.[36] These two cell lines display robust cellular rhythmicity with near anti-phasic oscillation of bioluminescence expression. The lentivirus preparation, transduction of U2OS cells and selection of the knockout candidates with puromycin (at […] concentration) were performed using a previously published protoco.[37] LumiCycle (Actimetrics, Inc., Evanston, IL) detect for U2OS cells stably expressing Bmal1-dLuc and Per2-dLuc cells were seeded on an opaque 24-well plate. When the cells are full, which were treated with dexamethasone (DEX) (100 nmol/L final) for 2 h for resetting, 2 h later, the media of cells were replaced with bioluminescence recording media having DMEM culture medium (Gibco 21063029, 500 mL), 70 mL 12% FBS. Luciferin (0.1 mmol/L final) was added fresh to the bioluminescence media. Molecules at determined concentrations were supplied to the recording media (final DMSO concentration is 0.1%).
# [3] = target: T1, RORα (Homo sapiens, UniProt P35398); test: Luciferase reporter assay (G6Pase or FGF21 promoter) in HEK293T cells cotransfected with RORα; type: cell-based; settings: Fig. S34
# T1 construct: HEK293T cells co-transfected with a full-length RORα gene and a luciferase reporter gene; expressed in transfected cells; host or cells: HEK293T
# T1 sequence (P35398 1-523): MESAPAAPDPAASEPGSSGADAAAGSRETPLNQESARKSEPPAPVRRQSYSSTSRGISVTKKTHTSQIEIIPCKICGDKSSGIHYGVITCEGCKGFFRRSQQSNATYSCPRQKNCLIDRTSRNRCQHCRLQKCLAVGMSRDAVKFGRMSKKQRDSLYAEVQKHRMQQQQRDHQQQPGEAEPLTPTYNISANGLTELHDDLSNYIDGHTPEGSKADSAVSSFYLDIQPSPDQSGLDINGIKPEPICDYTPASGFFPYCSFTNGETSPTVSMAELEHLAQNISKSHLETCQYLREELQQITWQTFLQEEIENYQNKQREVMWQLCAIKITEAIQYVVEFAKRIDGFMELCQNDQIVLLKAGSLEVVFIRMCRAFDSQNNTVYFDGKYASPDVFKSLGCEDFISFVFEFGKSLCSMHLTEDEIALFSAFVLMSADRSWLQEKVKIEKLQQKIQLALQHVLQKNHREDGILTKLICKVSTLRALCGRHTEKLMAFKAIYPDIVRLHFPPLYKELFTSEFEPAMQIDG
# Experimental: HEK293T cells were transfected with Lipofectamine 8000 (ThermoFisher) strictly following the manufacturer’s instructions. Cotransfected HEK293T cells with RORα or RORγ plasmid and a reporter consisting of the G6Pase or FGF21 promoters upstream of a luciferase reporter gene. 500 ng plasmid DNA was transfected into each well of 24 well-plate 24 h after the transfection, DMSO or Gala-SR and SR1078 (5 µmol/L) was added and incubated for 24 h. The Lumicycle instrument detects luminescence and records the numerical value.
solubility kinetic at 2 h [1] [µM],RORα transcriptional activity [3],Structure (SMILES),circadian rhythm amplitudes [2],period or phase of the circadian rhythm [2]
286,,O=C(Nc1ccc(C(OCO[C@@H]2O[C@H](CO)[C@@H](O[C@H]3O[C@H](CO)[C@@H](O)[C@H](O)[C@H]3O)[C@H](O)[C@H]2O)(C(F)(F)F)C(F)(F)F)cc1)c1ccc(C(F)(F)F)cc1 [Malt-SR],,
198,,O=C(Nc1ccc(C(OCO[C@H]2O[C@H](CO)[C@@H](O)[C@H](O)[C@@H]2O)(C(F)(F)F)C(F)(F)F)cc1)c1ccc(C(F)(F)F)cc1 [Mann-SR],,
,successful inhibition,"Cc1ccc(C(=O)Nc2ccc(C(O)(C(F)(F)F)C(F)(F)F)cc2)cc1 [compound 9, reference compound]",downregulate the amplitudes,without disrupting the fundamental period or phase
